Assay results published in patent US11331102B2, “Purified pentagalloyl glucose and devices for delivery” (Nectero Medical, Inc., priority 2018, dated 2022).

Experiment: studies of the concentration at which PGG of a given purity may be safely delivered
Conditions: depends on purity of the PGG; toxic impurities gallic acid and methyl gallate
Text: The concentrations of PGG which may be safely delivered to a patient may be generally proportional to the purity of the PGG. For example, gallic acid, depicted in FIG. 1B, and methyl gallate, depicted in FIG. 1C, are common cytotoxic impurities which may be removed from a source batch of PGG during the purification process. Eliminating the presence of or reducing the concentration of toxic impurities from the delivered PGG may allow higher concentrations of the PGG to be delivered due to the mitigation of the toxic side effects of impurities commonly found in isolated PGG. For instance, studies have shown that substantially 100% pure PGG may be safely delivered at concentrations up to approximately 0.330% (w/v), 95% pure PGG may be safely delivered at concentrations up to approximately 0.125% (w/v), and 85% pure PGG may be safely delivered at concentrations up to approximately 0.06% (w/v). Delivery of PGG in higher concentrations may enhance the amount of uptake of PGG by the target tissue which may increase the efficacy of the PGG treatment. Delivery of PGG in higher concentrations may increase the rate of uptake of PGG by the tissue allowing the same amount of uptake in shorter delivery times. Reducing or minimizing the delivery time may be advantageous for reducing the overall treatment time, and particularly the duration of time for which a blood vessel, such as the aorta, is potentially occluded, as described elsewhere herein. Minimization of the treatment time and particularly the duration of blood occlusion may improve the safety and convenience of the treatment procedure and improve patient outcomes.

Substance	concentration up to which PGG may be safely delivered
1,2,3,4,6-pentagalloyl glucose [85% pure PGG]	≤ 0.06 % (w/v)
1,2,3,4,6-pentagalloyl glucose [95% pure PGG]	≤ 0.125 % (w/v)
1,2,3,4,6-pentagalloyl glucose [substantially 100% pure PGG]	≤ 0.330 % (w/v)
